The results in this text go back to ChEMBL document CHEMBL4673377 (Bioorg Med Chem Lett, 2021).

Active and inactive are the calls of the source. No cut-off for these calls is given here.

Data set [1] is described as follows: Permeability of compound at pH 7.4 by PAMPA assay. In kind it is ADME. The conditions noted are these: read-out: permeability.
Data set [2] concerns the target Kynurenine 3-monooxygenase (Mus musculus, UniProt Q91WN4).
Description: Inhibition of mouse liver mitochondrial KMO by measuring the 3-HK metabolite formation using L-kynurenine as substrate preincubated for 5 mins followed by substate addition and measured after 30 mins by LC-MS/MS analysis
The nature of data set [3]: Plasma concentration in mouse at 10 mg/kg, po after 1 hr. In kind it is ADME, organism-based.
The nature of data set [4]: Drug uptake in mouse brain at 10 mg/kg, po after 1 hr. In kind it is ADME, organism-based. The settings on record: read-out: Drug uptake.
Another data set in a line: in vivo. The settings on record: mouse, brain/plasma, po, 10 mg/kg.
Data set [5] has as its target Kynurenine 3-monooxygenase (Mus musculus) (UniProt Q91WN4). Nature of the data set: Inhibition of mouse liver mitochondrial KMO by measuring the 3-HK metabolite formation at 100 nM using L-kynurenine as substrate preincubated for 5 mins followed by substate addition and measured after 30 mins by LC-MS/MS analysis relative to control. The settings on record: Mitochondria, time 35.0 min.

Data set [6] deals with T1, Kynurenine 3-monooxygenase (Homo sapiens, UniProt O15229). Nature of the data set: Inhibition of human liver mitochondrial KMO at by measuring the 3-HK metabolite formation at 100 nM using L-kynurenine as substrate preincubated for 5 mins followed by substate addition and measured after 30 mins by LC-MS/MS analysis relative to control. The settings on record: Mitochondria, time 35.0 min.
Target sequence in this assay (O15229 whole entry, looked up): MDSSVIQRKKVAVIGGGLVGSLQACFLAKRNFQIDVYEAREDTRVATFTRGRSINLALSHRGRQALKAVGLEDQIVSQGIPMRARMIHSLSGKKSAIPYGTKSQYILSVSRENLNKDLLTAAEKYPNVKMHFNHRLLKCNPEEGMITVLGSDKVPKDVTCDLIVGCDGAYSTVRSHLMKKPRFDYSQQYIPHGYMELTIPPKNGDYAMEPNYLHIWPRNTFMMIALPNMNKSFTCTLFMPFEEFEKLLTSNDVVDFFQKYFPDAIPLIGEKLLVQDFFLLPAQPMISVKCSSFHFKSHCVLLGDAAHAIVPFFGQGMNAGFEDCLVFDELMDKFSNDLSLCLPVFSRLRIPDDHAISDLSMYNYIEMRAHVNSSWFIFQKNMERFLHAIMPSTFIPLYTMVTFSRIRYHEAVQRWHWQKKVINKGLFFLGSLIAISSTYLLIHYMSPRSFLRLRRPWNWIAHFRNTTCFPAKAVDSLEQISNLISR

Data set [7] deals with T1, Kynurenine 3-monooxygenase.
Target sequence in this assay (O15229 whole entry): as the sequence (O15229 whole entry, looked up) above
Description: Inhibition of KMO (unknown origin)
The test system of data set [8] is Mus musculus. Nature of the data set: Cognitive enhancing effect in R6/2 mouse model of HD assessed as increase in spontaneous alteration at 100 mg/kg, po administered twice daily for 12 weeks starting from 5 weeks of age by Y-maze test. Format: functional, organism-based.
In data set [9] the test system is Mus musculus. Nature of the data set: Effect on R6/2 mouse model of HD assessed as increase in latency to fall at 100 mg/kg, po administered twice daily for 11 weeks age starting from 5 weeks of age by rotarod test. Format: functional, organism-based. (Falling from the rotarod earlier than controls is read as motor impairment.)
The subject of data set [10] is Mus musculus. The data set can be described thus: In vivo inhibition of KMO in R6/2 mouse model of HD assessed as decrease in 3-HK level in striatum at 100 mg/kg, po administered twice daily for 7 weeks starting from 5 weeks age. In kind it is functional, organism-based.

Kynurenine 3-monooxygenase (Mus musculus, UniProt Q91WN4), sequence (Q91WN4 whole entry): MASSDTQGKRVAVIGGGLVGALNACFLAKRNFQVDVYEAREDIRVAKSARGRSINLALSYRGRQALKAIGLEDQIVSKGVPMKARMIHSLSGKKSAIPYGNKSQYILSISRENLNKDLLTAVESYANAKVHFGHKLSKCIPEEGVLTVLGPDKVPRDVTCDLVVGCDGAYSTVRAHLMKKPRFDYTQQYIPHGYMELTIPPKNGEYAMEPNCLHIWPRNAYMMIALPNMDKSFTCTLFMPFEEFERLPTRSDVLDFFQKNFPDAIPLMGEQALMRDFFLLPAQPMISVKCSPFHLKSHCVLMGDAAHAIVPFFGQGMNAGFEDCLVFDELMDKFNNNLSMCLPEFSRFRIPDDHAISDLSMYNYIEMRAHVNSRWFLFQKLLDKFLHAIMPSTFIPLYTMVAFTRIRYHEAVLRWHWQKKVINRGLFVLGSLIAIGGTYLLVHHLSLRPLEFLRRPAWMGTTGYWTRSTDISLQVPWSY
Kynurenine 3-monooxygenase (Mus musculus), sequence (Q91WN4 whole entry, looked up): as the sequence (Q91WN4 whole entry) above
Description for in vivo: Ratio of drug level in brain to plasma of mouse at 10 mg/kg, po after 1 hr

Usually IC50 stands for the concentration needed to halve the response being measured. A higher IC50 goes with weaker potency. A word on the Kp: it is the ratio of the level in a tissue or fluid to that in plasma or blood. Take `O=C(O)c1cc(-c2ccc(Cl)c(OC3CC3)c2)ncn1`: the Papp in data set [1] was 65 nm/s. This compound returned an IC50 in data set [2] of 0.0087 µM. In addition, the figures for the concentration at 1 h in data set [3] and in [4] were 49.1 µg/mL and 177 ng/g, respectively. Moreover, the Kp at 1 h in “in vivo” was 0.004.

The term inhibition denotes how much of the control response was suppressed. Turning to `O=S(=O)(Nc1ccc(-c2cccc(Cl)c2)nn1)c1ccccn1`, in data set [5], the inhibition turned out to be 16%.

Turning to `Cc1ccc(S(=O)(=O)Nc2ccc(-c3cccc4cccnc34)nn2)cc1`, in data set [1], the Papp was 441 nm/s. In [2], this compound displayed a 50% inhibitory concentration (IC50) of 0.0087 µM. Moreover, the concentration at 1 h in data set [3] was found to be 27.9 µg/mL; in [4] it was 2910 ng/g. Moreover, in [6], the inhibition came to 36%. In “in vivo”, this compound showed a Kp at 1 h of 0.104.

On to `Cc1cccc(S(=O)(=O)Nc2ccc(-c3cccc(Cl)c3)nn2)c1`, for which the Papp in [1] worked out at 402 nm/s. Also, the midpoint of inhibition in data set [2], the IC50, lay at 0.101 µM.

Take `O=S(=O)(Nc1ccc(-c2cccc(Cl)c2)nn1)c1cccnc1`: the inhibition in [5] was 31%.

On to `COc1ccccc1-c1ccc(NS(=O)(=O)c2ccc(C)cc2)nn1`, for which the Papp in [1] is 347 nm/s. In data set [2], this compound yielded an IC50 of 0.0365 µM. The concentration at 1 h in [3] is 2.52 µg/mL; in data set [4], 131 ng/g. The Kp at 1 h in the data set “in vivo” worked out at 0.052.

As for `Cc1ccc(S(=O)(=O)Nc2ccc(-c3cccc4ccncc34)nn2)cc1`, in data set [1], the Papp came out at 224 nm/s. In data set [2], this compound came in with an IC50 of 0.0472 µM.

In the case of `Cc1ccc(S(=O)(=O)Nc2ccc(-c3cccc4c3N(C)CC4)nn2)cc1`, the Papp in data set [1] came to 385 nm/s. In [2], this compound registered a half-inhibitory concentration (IC50) of 0.0169 µM.

With `Cc1ccc(S(=O)(=O)Nc2ccc(-c3ccccc3N3CCN(C)CC3)nn2)cc1`, the concentration for half-maximal inhibition (IC50) in data set [2] was above 0.1 µM.

On to `Cc1ccc(S(=O)(=O)Nc2ccc(-c3ccccc3N3CCCC3)nn2)cc1`, for which the Papp in data set [1] was 435 nm/s. The IC50 in data set [2] was 0.0017 µM. The concentration at 1 h in data set [3] amounted to 0.215 µg/mL; in data set [4], 51 ng/g. Besides, in “in vivo”, the concentration ratio (Kp) at 1 h turned out to be 0.235.

As for `CN(C)c1ccccc1S(=O)(=O)Nc1ccc(-c2cccc(Cl)c2)nn1`, in data set [1], the Papp was determined as 357 nm/s. This compound also had an IC50 in [2] of 0.118 µM.

Turning to `Cc1ccc(S(=O)(=O)Nc2ccc(-c3cccc4ccn(C)c34)nn2)cc1`, in data set [1], the Papp is 492 nm/s. Moreover, the midpoint of inhibition in [2], the IC50, lay at 0.0291 µM.

With `Cc1ccc(S(=O)(=O)Nc2ccc(-c3ccc(N(C)C)cc3)nn2)cc1`, 0.546 µM corresponded to half-maximal inhibition in data set [2] (IC50).

As for `Cc1ccc(S(=O)(=O)Nc2ccc(-c3ccccc3N(C)C)nn2)cc1`, the Papp in data set [1] was 357 nm/s. This compound also showed a 50% inhibitory concentration (IC50) in data set [2] of 0.0045 µM. Further, the concentration at 1 h in data set [3] was 0.185 µg/mL; in data set [4], 25 ng/g. This compound also had a Kp at 1 h in “in vivo” of 0.136.

Turning to `CN(C)c1cccc(S(=O)(=O)Nc2ccc(-c3cccc(Cl)c3)nn2)c1`, in [1], the Papp came to 425 nm/s. For the same compound, half-maximal inhibition in [2] (IC50) was put at 0.0317 µM.

In the case of `CN(C)c1cccc(S(=O)(=O)Nc2ccc(-c3ccccc3N3CCCC3)nn2)c1`, the Papp in data set [1] was 312 nm/s. In [2], this compound had a 50% inhibitory concentration (IC50) of 0.0033 µM. Further, the values for the concentration at 1 h in data set [3] and in data set [4] were 0.879 µg/mL and 137 ng/g, respectively. For the same compound, the concentration ratio (Kp) at 1 h in “in vivo” was determined as 0.162.

As for `O=C(O)C1CC1C(=O)c1ccc(Cl)c(Cl)c1` (centres undefined), in data set [7], the IC50 came out at 0.04 µM.

In [2], `CN(C)c1ccc(S(=O)(=O)Nc2ccc(-c3cccc(Cl)c3)nn2)cc1` displayed a concentration for half-maximal inhibition (IC50) of 0.402 µM.

With `Cc1ccc(S(=O)(=O)Nc2ccc(-c3cccc(N(C)C)c3)nn2)cc1`, the Papp in data set [1] amounted to 324 nm/s. Besides, the IC50 in data set [2] stood at 0.0825 µM.

For the compound `CCc1ccccc1-c1ccc(NS(=O)(=O)c2ccc(C)cc2)nn1`, the half-maximal inhibitory concentration (IC50) in data set [2] came to 0.0292 µM.

Regarding `Cc1ccc(S(=O)(=O)Nc2ccc(-c3ccccc3N3CCOCC3)nn2)cc1`, the Papp in data set [1] came out at 443 nm/s. This compound displayed an IC50 in [2] of 0.0039 µM. Further, the concentration at 1 h in data set [3] is 0.931 µg/mL; in [4], 69 ng/g. In the data set “in vivo”, this compound yielded a Kp at 1 h of 0.076.

Turning to `Cc1ccc(S(=O)(=O)Nc2ccc(-c3ccccc3N3CCCCC3)nn2)cc1`, in [1], the Papp is 506 nm/s. Also, the concentration at 1 h in [3] was determined as 0.808 µg/mL; in data set [4], 230 ng/g. Further, the outcome in the data set on Mus musculus [8], in the data set on Mus musculus [9] and in the data set on Mus musculus [10] was Active. In addition, in “in vivo”, the Kp at 1 h was 0.282.
